The values that follow come from patent US7317028B2, “Cell differentiation inducer” (Schering Aktiengesellschaft, priority 1996, dated 2008).

One data set relates to A2780 cells. As to the kind of experiment: Test for induction of differentiation in A2780 cells (ALP activity, ALPmin). Type of data set: cell-based, human. The settings on record: Homo sapiens, 72 h; A2780 cells, 3 days incubation; minimum concentration of the drug inducing increase of ALP activity. The method in brief: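 A2780 cells seeded at 15,000/well, test compound added in serial dilution the next day. ALP reaction stopped with 3N NaOH and absorbance read at 405 nm; ALPmin is the lowest concentration raising ALP activity.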

`CN1CCCC(COC(=O)NCc2ccc(C(=O)Nc3ccccc3N)cc2)C1` (stereo not drawn) [Example 65, N-(2-aminophenyl)-4-[N-(1-methylpiperidin-3-yl)methoxycarbonylaminomethyl]benzamide] returned a melting point of 130 to 135 °C. In the data set with A2780 cells, the minimal effective concentration worked out at 3 µM.

As to `Nc1ccccc1NC(=O)c1ccc(CNC(=O)Oc2ccccc2)cc1` [Example 68, N-(2-aminophenyl)-4-[N-(phenoxycarbonyl)aminomethyl]benzamide], the melting point fell in the range of 174 to 175 °C. In the data set with A2780 cells, the minimal effective concentration worked out at 3 µM.

As to `Nc1ccccc1COC(=O)NCc1ccc(C(=O)Nc2ccccc2N)cc1` [Example 71, N-(2-aminophenyl)-4-[N-(2-aminophenyl)methoxycarbonylaminomethyl]benzamide], the melting point was 149 to 151 °C (dec.). In the data set on A2780 cells, this compound showed a minimal effective concentration of 10 µM.

Consider `Nc1cccc(COC(=O)NCc2ccc(C(=O)Nc3ccccc3N)cc2)c1` [Example 73, N-(2-aminophenyl)-4-[N-(3-aminophenyl)methoxycarbonylaminomethyl]benzamide], for which the melting point is 149 to 153 °C (dec.). The compound also returned a minimal effective concentration in the data set on A2780 cells of 3 µM.

As to `Cn1cncc1COC(=O)NCc1ccc(C(=O)Nc2ccccc2N)cc1` [Example 74, N-(2-aminophenyl)-4-[N-(1-methylimidazol-5-yl)methoxycarbonylaminomethyl]benzamide], the melting point is 162 to 165 °C (dec.). The same compound had a minimal effective concentration with A2780 cells of 10 µM.

For the compound `COc1cncc(COC(=O)NCc2ccc(C(=O)Nc3ccccc3N)cc2)c1` [Example 76, N-(2-aminophenyl)-4-[N-(5-methoxypyridin-3-yl)methoxycarbonylaminomethyl]benzamide], the melting point is 169 to 170 °C. The same compound yielded a minimal effective concentration in the data set with A2780 cells of 1 µM.

`Nc1ccccc1NC(=O)c1ccc(CNC(=O)OCc2cnccn2)cc1` [Example 77, N-(2-aminophenyl)-4-[N-(pyrazin-2-yl)methoxycarbonylaminomethyl]benzamide] yielded a melting point of 182 °C. In the data set with A2780 cells, the minimal effective concentration came to 3 µM.

Take `COc1ccc(O)c(NC(=O)c2ccc(CNC(=O)OCc3cccnc3)cc2)c1` [Example 85, N-(2-hydroxy-5-methoxyphenyl)-4-[N-(pyridin-3-yl)methoxycarbonylaminomethyl]benzamide]: the melting point is 175 to 176 °C. In the data set with A2780 cells, this compound gave a minimal effective concentration of 3 µM.

As to `Nc1ccccc1NC(=O)c1ccc(CNC(=S)OCc2cccnc2)cc1` [Example 88, N-(2-aminophenyl)-4-[N-(pyridin-3-yl)methoxythiocarbonylaminomethyl]benzamide], the melting point is 154 to 156 °C (dec.). In addition, the minimal effective concentration in the data set with A2780 cells was found to be 0.1 µM.

Compound `Nc1ccccc1NC(=O)c1ccc(CCC(=O)NCc2cccnc2)cc1` [Example 97, N-(2-aminophenyl)-4-[2-[N-(3-picolyl)aminocarbonyl]ethyl]benzamide] registered a melting point of 168 to 170 °C. Moreover, in the data set on A2780 cells, the minimal effective concentration amounted to 0.1 µM.

With `Nc1ccccc1NC(=O)c1ccc(COC(=O)NCc2cccnc2)cc1` [Example 98, N-(2-aminophenyl)-4-[(pyridin-3-yl)methylaminocarbonyloxymethyl]benzamide], the melting point was 139 to 141 °C. The same compound displayed a minimal effective concentration with A2780 cells of 0.1 µM.

`Nc1ccccc1NC(=O)c1ccc(NC(=O)Cc2ccccc2)cc1` [Example 100, N-(2-aminophenyl)-4-(phenylacetylamino)benzamide] gave a melting point of 232 to 237 °C. In the data set with A2780 cells, this compound gave a minimal effective concentration of 1 µM.

Take `Nc1ccccc1NC(=O)c1ccc(NC(=O)Cc2ccc([N+](=O)[O-])cc2)cc1` [Example 104, N-(2-aminophenyl)-4-[(4-nitrophenylacetyl)amino]benzamide]: the melting point lay in the range of 222 to 226 °C. The minimal effective concentration in the data set with A2780 cells stood at 1 µM.

As to `Nc1ccccc1CC(=O)Nc1ccc(C(=O)Nc2ccccc2N)cc1` [Example 105, N-(2-aminophenyl)-4-[(2-aminophenylacetyl)amino]benzamide], the melting point is 177 to 182 °C (dec.). The same compound returned a minimal effective concentration with A2780 cells of 1 µM.

As for `Nc1ccc(CC(=O)Nc2ccc(C(=O)Nc3ccccc3N)cc2)cc1` [Example 106, N-(2-aminophenyl)-4-[(4-aminophenylacetyl)amino]benzamide], the melting point was 219 to 226 °C (dec.). Also, the minimal effective concentration in the data set on A2780 cells stood at 1 µM.

Compound `CN(C)c1ccc(CC(=O)Nc2ccc(C(=O)Nc3ccccc3N)cc2)cc1` [Example 108, N-(2-aminophenyl)-4-[[4-(N,N-dimethylamino)phenylacetyl]amino]benzamide] yielded a melting point of 140 °C. Besides, the minimal effective concentration in the data set with A2780 cells is 3 µM.

In the case of `Cl.Cl.Nc1ccccc1NC(=O)c1ccc(NC(=O)Cc2cccnc2)cc1` [Example 111, N-(2-aminophenyl)-4-[(pyridin-3-yl)acetylamino]benzamide dihydrochloride], the melting point was 182 to 189 °C (dec.). The compound also displayed a minimal effective concentration with A2780 cells of 3 µM.

In turn, `Nc1ccccc1NC(=O)c1ccc(NC(=O)CCc2cccnc2)cc1` [Example 112, N-(2-aminophenyl)-4-[[3-(pyridin-3-yl)propanoyl]amino]benzamide] gave a melting point of 184 to 186 °C. Moreover, the minimal effective concentration in the data set on A2780 cells came out at 0.1 µM.

Take `Nc1ccccc1NC(=O)c1ccc(NC(=O)CN(Cc2cccnc2)C(=O)C(F)(F)F)cc1` [Example 114, N-(2-aminophenyl)-4-[[N-(pyridin-3-yl)methyl-N-trifluoroacetylamino]acetylamino]benzamide]: the melting point is 145 °C (dec.). In addition, in the data set with A2780 cells, the minimal effective concentration was 3 µM.

Consider `Nc1ccccc1NC(=O)c1ccc(NC(=O)CNCc2cccnc2)cc1` [Example 115, N-(2-aminophenyl)-4-[[N-(pyridin-3-yl)methylamino]acetylamino]benzamide], for which the melting point was 160 °C (dec.). Further, the minimal effective concentration in the data set on A2780 cells was found to be 0.01 µM.

Compound `CN(CC(=O)Nc1ccc(C(=O)Nc2ccccc2N)cc1)Cc1cccnc1` [Example 119, N-(2-aminophenyl)-4-[[N-(pyridin-3-yl)methyl-N-methylamino]acetylamino]benzamide] displayed a melting point of 154 to 155 °C. In the data set on A2780 cells, the minimal effective concentration was 3 µM.

Take `Nc1ccccc1NC(=O)c1ccc(NC(=O)COc2cccnc2)cc1` [Example 120, N-(2-aminophenyl)-4-[N-(pyridin-3-yl)oxyacetylamino]benzamide]: the melting point was in the range of 175 to 179 °C. Further, the minimal effective concentration in the data set on A2780 cells is 0.3 µM.

`Nc1ccccc1NC(=O)c1ccc(NC(=O)CCC(=O)c2cccnc2)cc1` [Example 121, N-(2-aminophenyl)-4-[4-(pyridin-3-yl)-1,4-dioxobutylamino]benzamide] displayed a melting point of 190 to 194 °C. Also, the minimal effective concentration in the data set with A2780 cells was 3 µM.

As to `Nc1ccccc1NC(=O)c1ccc(NC(=O)CC(=O)Nc2cccnc2)cc1` [Example 122, N-(2-aminophenyl)-4-[3-[N-(pyridin-3-yl)amino]-1,3-dioxopropylamino]benzamide], the melting point is 196 °C (dec.). For the same compound, the minimal effective concentration in the data set with A2780 cells is 0.03 µM.

On to `Cc1cc(C(=O)Nc2ccccc2N)ccc1NC(=O)COCc1cccnc1` [Example 123, N-(2-aminophenyl)-4-[N-(pyridin-3-yl)methoxyacetylamino]-3-methylbenzamide], for which the melting point is 178 to 181 °C (dec.). This compound also came in with a minimal effective concentration in the data set with A2780 cells of 3 µM.

Turning to `Nc1ccccc1NC(=O)c1ccc(NC(=O)COCc2ccsc2)cc1` [Example 124, N-(2-aminophenyl)-4-[N-(thiophen-3-yl)methoxyacetylamino]benzamide], the melting point fell in the range of 186 to 189 °C. In the data set on A2780 cells, this compound gave a minimal effective concentration of 3 µM.

`CN(C(=O)COCc1cccnc1)c1ccc(C(=O)Nc2ccccc2N)cc1` [Example 125, N-(2-aminophenyl)-4-[N-methyl-N-(pyridin-3-yl)methoxyacetylamino]benzamide]: the melting point was 180 to 183 °C (dec.). The same compound had a minimal effective concentration in the data set with A2780 cells of 0.1 µM.

As for `Nc1ccccc1NC(=O)c1ccc(NC(=O)COCc2ccccn2)cc1` [Example 126, N-(2-aminophenyl)-4-[N-(pyridin-2-yl)methoxyacetylamino]benzamide], the melting point lay in the range of 171 to 173 °C. In the data set with A2780 cells, the minimal effective concentration was found to be 3 µM.

For the compound `Nc1ccccc1NC(=O)c1ccc(NC(=O)CNC(=O)c2cccnc2)cc1` [Example 127, N-(2-aminophenyl)-4-[N-(N-nicotinoylamino)acetylamino]benzamide], the melting point is 218 to 220 °C (dec.). In the data set on A2780 cells, the minimal effective concentration is 0.3 µM.

`CC(Oc1cccnc1)C(=O)Nc1ccc(C(=O)Nc2ccccc2N)cc1` (stereo not drawn) [Example 129, N-(2-aminophenyl)-4-[N-[2-(pyridin-3-yl)oxypropionyl]amino]benzamide] yielded a melting point of 193 to 196 °C. This compound also displayed a minimal effective concentration in the data set on A2780 cells of 1 µM.

As to `CC(OCc1cccnc1)C(=O)Nc1ccc(C(=O)Nc2ccccc2N)cc1` (stereo not drawn) [Example 131, N-(2-aminophenyl)-4-[N-[2-(pyridin-3-yl)methoxypropionyl]amino]benzamide], the melting point was 144 to 148 °C. In the data set on A2780 cells, the minimal effective concentration is 0.3 µM.

On to `Nc1ccccc1NC(=O)c1ccc(C(=O)NCc2ccccc2)cc1` [Example 132, N-(2-aminophenyl)-4-(N-benzylamino)carbonylbenzamide], for which the melting point was 239 to 241 °C (dec.). In the data set on A2780 cells, this compound showed a minimal effective concentration of 10 µM.

With `Nc1ccccc1NC(=O)c1ccc(C(=O)NCCc2ccccc2)cc1` [Example 133, N-(2-aminophenyl)-4-[N-(2-phenylethyl)amino]carbonylbenzamide], the melting point is 237 to 240 °C (dec.). Besides, in the data set on A2780 cells, the minimal effective concentration stood at 3 µM.

As a reminder, the minimal effective concentration is the smallest amount tested that counted as effective. One may read the melting point as the temperature, or range, at which the solid turns liquid.
